# From article PMC3894558, “Chemical signatures and new drug targets for gametocytocidal drug development” (Scientific Reports, 2014)
# Read-outs that look alike come from different tables or passages of the source.
# Tested on: P. falciparum 3D7 gametocytes
# Test: alamarBlue gametocyte viability assay, strain 3D7
# Assay type: cell-based, Plasmodium falciparum
# Conditions: for Max Resp: DMSO set at 0%, 100 nM epoxomicin set at -100%; for Curve Class / IC50: stages III-V 3D7 gametocytes; for IC50: 11 concentrations, 1:3 dilution; call rule not given here
Structure (SMILES),Max Resp (Malaria Box) [%],Curve Class (Malaria Box),"IC50 (Malaria Box, read-out: IC50) [µM]",IC50 (Malaria Box),"IC50 (Plasmodium falciparum, 3D7, Malaria Box, read-out: IC50) [µM]"
COc1ccc(CNC2CCN(c3ccc(NC(=O)c4cccc(Cl)c4)cc3)CC2)cc1OC [MMV666067],-95,-2.1,14.8,–,–
CCOc1ccc(-c2nc(NC(=O)c3cccc(S(C)(=O)=O)c3)sc2C)cc1 [MMV665913],-15,4,–,Inactive,–
CCc1c(C)c(=N)c2ccccc2n1C.I [MMV006278],-52,-2.2,–,Inactive,–
O=C(NCC1Cc2cccc(-c3ccncc3)c2O1)c1csc2c1CCCC2 (stereo not drawn) [MMV665954],5,4,–,Inactive,–
CCOC(=O)C1=CN(C)C=C(C(=O)OCC)C1c1cc(Br)c(OCC)c(OC)c1 [MMV006656],-72,-2.2,14.8,–,–
COc1ccc(C(=O)Nc2ccc3nc(N4CCCCC4)cc(C)c3c2)cc1OC [MMV019758],-32,-3,–,Inactive,–
COc1ccc(-c2nc(N3CCN(C(=O)C4CCCCC4)CC3)c3c4c(sc3n2)CCCC4)cc1 [MMV396594],-12,4,–,Inactive,–
CCCc1cc(O)c2c3c(c(=O)oc2c1)CN(C)CC3 [MMV665841],-28,-1.2,0.662,–,–
COc1cc(OC)c(N(C)C(=O)c2cc3c(s2)-c2ccccc2S(=O)(=O)C3)cc1Cl [MMV006427],-74,-2.2,11.8,–,–
CCOC(=O)c1cnc2c(C)cccc2c1Nc1ccc(C(C)=O)cc1 [MMV006250],3,4,–,Inactive,–
CCN1CCN(c2c(C(=O)c3ccccc3)cnc3cc(OC)c(OC)cc23)CC1 [MMV008474],-32,-2.4,–,Inactive,–
O=C1CC(O)(C(F)(F)C(F)(F)F)Oc2ccccc21 (stereo not drawn) [MMV000972],-32,-1.4,0.743,–,–
Oc1ccc(Cl)cc1CNc1nc2ccccc2[nH]1 [MMV665850],-50,-2.2,–,Inactive,–
Cl.Oc1ccccc1CNCC12CC3CC(CC(C3)C1)C2 [MMV020788],-43,-1.2,0.105,–,–
CC1(c2ccccc2)Nc2ccccc2-c2nc3ccccc3n21 (stereo not drawn) [MMV396715],-84,-2.1,16.6,–,–
COc1ccc(C=C2SC(Nc3ccc(F)cc3)=NC2=O)c(OC)c1 [MMV084434],-24,4,–,Inactive,–
Cc1ccc(N2C3c4ccccc4N(S(=O)(=O)c4ccc(C)cc4)C2c2ccccc2N3S(=O)(=O)c2ccc(C)cc2)cc1 [MMV007160],-3,4,–,Inactive,–

Structure (SMILES),Max Resp (Malaria Box) [%],Curve Class (Malaria Box),"IC50 (Malaria Box, read-out: IC50) [µM]",IC50 (Malaria Box),"IC50 (Plasmodium falciparum, 3D7, Malaria Box, read-out: IC50) [µM]"
c1ccc(/C2=N/c3ccccc3/N=C(/c3ccccc3)c3ccccc32)cc1 [MMV007113],-5,4,–,Inactive,–
COc1ccc(CNC(=O)c2cc3c(=O)n4ccccc4nc3n(CCc3ccccc3)c2=N)cc1 [MMV665881],-29,4,–,Inactive,–
O=C(Nc1cccc(C2=NCCN2)c1)Nc1cccc(C2=NCCN2)c1 [MMV665810],-78,-2.2,–,–,18.7
Cc1ccccc1OCCSc1nc2ccc(NC(=O)c3ccccc3)cc2s1 [MMV007577],18,4,–,Inactive,–
Cc1cc(Nc2ccc(Cl)cc2)n2nc(C(F)(F)F)nc2n1 [MMV011256],-9,4,–,Inactive,–
CCN1CCN(c2cc(C)c3cc(NC(=O)c4ccc(OC)c(OC)c4)ccc3n2)CC1 [MMV019074],-32,-2.2,–,Inactive,–
C=CC12CCN(CC1)C(C(O)c1ccnc3ccc(OC)cc13)C2.Cl (stereo not drawn) [MMV665782],-31,-1.2,0.209,–,–
COc1cccc(C(=O)Nc2ccc(-c3nc4ccccc4[nH]3)cc2)c1 [MMV019762],-1,4,–,Inactive,–
CCOc1ccc(-c2nonc2NC(=O)c2cccc(C)c2)cc1OCC [MMV665805],-69,-1.2,4.18,–,–
Oc1ccc(-c2nc(-c3ccc4oc5ccc(-c6[nH]c(-c7ccc(O)cc7)nc6-c6ccccc6)cc5c4c3)c(-c3ccccc3)[nH]2)cc1 [MMV000753],-68,-2.2,18.7,–,–
CN(C)c1ccc(N=Cc2ccc(N3CCOCC3)cc2)cc1 [MMV073843],-98,-1.1,2.35,–,–
Cc1ccc(-c2cc3c(nn2)-c2ccccc2C3=O)cc1 [MMV666021],-4,4,–,Inactive,–
COc1ccc(-c2nonc2NC(=O)c2cccc(C)c2)cc1OC [MMV665890],-38,-3,–,Inactive,–
FC(F)(F)c1cccc(Nc2nc(-c3ccccc3)nc3ncccc23)c1 [MMV665798],-7,4,–,Inactive,–
CCOc1ccc(CN2CCN(CC(O)COc3ccc(OCC(O)CN4CCN(Cc5ccc(OCC)cc5)CC4)cc3)CC2)cc1 (stereo not drawn) [MMV007092],-94,-1.1,7.43,–,–
Cc1sc(NC(=O)c2ccccc2)c(C(c2cccs2)N2CCN(c3ccccc3)CC2)c1C (stereo not drawn) [MMV396652],-1,4,–,Inactive,–
COc1ccccc1CNC(=O)C1c2ccccc2C(=O)N(CC(C)C)C1c1cccs1 (stereo not drawn) [MMV000648],-46,-2.2,–,Inactive,–
